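Cultured in 96-well plates, cells were exposed to test compound for 48 hours across five concentrations. TGI is the concentration that stops growth completely.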
What was measured:
Assay in all cases: NCI anticancer screen, dose series, 48 h
786-0 renal = tested on: 786-0 renal
A498 renal = tested on: A498 renal
A549 NSCLC = tested on: A549 NSCLC
ACHN renal = tested on: ACHN renal
CAKI-1 renal = tested on: CAKI-1 renal
CCRF-CEM leukemia = tested on: CCRF-CEM leukemia
COLO 205 colon = tested on: COLO 205 colon
DLD-1 colon = tested on: DLD-1 colon
DMS 114 small cell lung = tested on: DMS 114 small cell lung
DMS 273 small cell lung = tested on: DMS 273 small cell lung
EKVX NSCLC = tested on: EKVX NSCLC
HCC-2998 colon = tested on: HCC-2998 colon
HCT-116 colon = tested on: HCT-116 colon
HCT-15 colon = tested on: HCT-15 colon
HOP-18 NSCLC = tested on: HOP-18 NSCLC
HOP-62 NSCLC = tested on: HOP-62 NSCLC
HOP-92 NSCLC = tested on: HOP-92 NSCLC
HT29 colon = tested on: HT29 colon
IGROV1 ovarian = tested on: IGROV1 ovarian
K-562 leukemia = tested on: K-562 leukemia
KM12 colon = tested on: KM12 colon
KM20L2 colon = tested on: KM20L2 colon
LOX IMVI melanoma = tested on: LOX IMVI melanoma
LXFL 529 NSCLC = tested on: LXFL 529 NSCLC
M14 melanoma = tested on: M14 melanoma
M19-MEL melanoma = tested on: M19-MEL melanoma
MALME-3M melanoma = tested on: MALME-3M melanoma
MOLT-4 leukemia = tested on: MOLT-4 leukemia
NCI-H226 lung = tested on: NCI-H226 lung
NCI-H460 lung = tested on: NCI-H460 lung
NCI-H522 lung = tested on: NCI-H522 lung
OVCAR-3 ovarian = tested on: OVCAR-3 ovarian
OVCAR-4 ovarian = tested on: OVCAR-4 ovarian
OVCAR-5 ovarian = tested on: OVCAR-5 ovarian
OVCAR-8 ovarian = tested on: OVCAR-8 ovarian
RPMI-8226 leukemia = tested on: RPMI-8226 leukemia
RXF 393 renal = tested on: RXF 393 renal
RXF-631 renal = tested on: RXF-631 renal
SF-268 CNS = tested on: SF-268 CNS
SF-295 CNS = tested on: SF-295 CNS
SF-539 CNS = tested on: SF-539 CNS
SK-MEL-2 melanoma = tested on: SK-MEL-2 melanoma
SK-MEL-28 melanoma = tested on: SK-MEL-28 melanoma
SK-MEL-5 melanoma = tested on: SK-MEL-5 melanoma
SK-OV-3 ovarian = tested on: SK-OV-3 ovarian
SN12C renal = tested on: SN12C renal
SNB-19 CNS = tested on: SNB-19 CNS
SNB-75 CNS = tested on: SNB-75 CNS
SNB-78 CNS = tested on: SNB-78 CNS
SW-620 colon = tested on: SW-620 colon
TK-10 renal = tested on: TK-10 renal
UACC-257 melanoma = tested on: UACC-257 melanoma
UO-31 renal = tested on: UO-31 renal
XF 498 CNS = tested on: XF 498 CNS
NCI-H23 lung = tested on: NCI-H23 lung
U251 CNS = tested on: U251 CNS
UACC-62 melanoma = tested on: UACC-62 melanoma
HL-60(TB) leukemia = tested on: HL-60(TB) leukemia

With `COc1cc2c(c(OC)c1OC)-c1ccc(SC)c(=O)cc1C(CC(=O)Oc1cccc([N+](=O)[O-])c1)C2` (stereo not drawn) the TGI (786-0 renal) was greater than 100 µM, the TGI (A498 renal) was 0.823 µM and the TGI (A549 NSCLC) was greater than 100 µM. It also gave a TGI (ACHN renal) greater than 100 µM, a TGI (CAKI-1 renal) greater than 100 µM and a TGI (CCRF-CEM leukemia) greater than 57.2 µM. For the same compound, the TGI (COLO 205 colon) was 2.24 µM, the TGI (DLD-1 colon) was greater than 56.9 µM and the TGI (DMS 114 small cell lung) was 3.95 µM. For the same compound, the TGI (DMS 273 small cell lung) was greater than 100 µM, the TGI (EKVX NSCLC) was greater than 100 µM and the TGI (HCC-2998 colon) was 0.849 µM. It also gave a TGI (HCT-116 colon) of 3.72 µM, a TGI (HCT-15 colon) of 2.24 µM and a TGI (HOP-18 NSCLC) greater than 100 µM. The TGI (HOP-62 NSCLC) was greater than 100 µM, the TGI (HOP-92 NSCLC) was greater than 100 µM and the TGI (HT29 colon) was 1.99 µM. For the same compound, the TGI (IGROV1 ovarian) was greater than 100 µM, the TGI (K-562 leukemia) was greater than 100 µM and the TGI (KM12 colon) was 5.4 µM. The TGI (KM20L2 colon) was 2.06 µM, the TGI (LOX IMVI melanoma) was greater than 32.1 µM and the TGI (LXFL 529 NSCLC) was greater than 100 µM. It also gave a TGI (M14 melanoma) greater than 100 µM, a TGI (M19-MEL melanoma) greater than 100 µM and a TGI (MALME-3M melanoma) greater than 100 µM. For the same compound, the TGI (MOLT-4 leukemia) was greater than 100 µM, the TGI (NCI-H226 lung) was 3.51 µM and the TGI (NCI-H460 lung) was 8.13 µM. It also gave a TGI (NCI-H522 lung) of 5.81 µM, a TGI (OVCAR-3 ovarian) of 0.94 µM and a TGI (OVCAR-4 ovarian) greater than 100 µM. For the same compound, the TGI (OVCAR-5 ovarian) was greater than 100 µM, the TGI (OVCAR-8 ovarian) was 10.4 µM and the TGI (RPMI-8226 leukemia) was greater than 54.8 µM. It also gave a TGI (RXF 393 renal) greater than 100 µM, a TGI (RXF-631 renal) of 12.8 µM and a TGI (SF-268 CNS) greater than 27.2 µM. For the same compound, the TGI (SF-295 CNS) was greater than 100 µM, the TGI (SF-539 CNS) was 1.32 µM and the TGI (SK-MEL-2 melanoma) was greater than 100 µM. It also gave a TGI (SK-MEL-28 melanoma) greater than 100 µM, a TGI (SK-MEL-5 melanoma) greater than 100 µM and a TGI (SK-OV-3 ovarian) greater than 100 µM. It also gave a TGI (SN12C renal) greater than 76.9 µM, a TGI (SNB-19 CNS) greater than 100 µM and a TGI (SNB-75 CNS) of 0.71 µM. It also gave a TGI (SNB-78 CNS) greater than 100 µM, a TGI (SW-620 colon) greater than 100 µM and a TGI (TK-10 renal) greater than 100 µM. For the same compound, the TGI (UACC-257 melanoma) was greater than 100 µM, the TGI (UO-31 renal) was greater than 100 µM and the TGI (XF 498 CNS) was 20.3 µM.

`COc1cc(/C=C(\NC(=O)c2ccccc2)c2nc3ccc4c(c3[nH]2)C(=O)c2ccccc2C4=O)cc(OC)c1OC` was tested, and the TGI (786-0 renal) was greater than 100 µM, the TGI (A498 renal) was greater than 100 µM and the TGI (A549 NSCLC) was greater than 100 µM. It also gave a TGI (CAKI-1 renal) greater than 100 µM, a TGI (CCRF-CEM leukemia) greater than 100 µM and a TGI (COLO 205 colon) greater than 100 µM. The TGI (DLD-1 colon) was greater than 100 µM, the TGI (DMS 114 small cell lung) was greater than 100 µM and the TGI (DMS 273 small cell lung) was greater than 100 µM. The TGI (EKVX NSCLC) was greater than 100 µM, the TGI (HCC-2998 colon) was greater than 100 µM and the TGI (HCT-116 colon) was greater than 100 µM. The TGI (HCT-15 colon) was greater than 100 µM, the TGI (HOP-62 NSCLC) was greater than 100 µM and the TGI (HOP-92 NSCLC) was greater than 100 µM. The TGI (HT29 colon) was greater than 100 µM, the TGI (IGROV1 ovarian) was greater than 100 µM and the TGI (K-562 leukemia) was greater than 100 µM. The TGI (KM12 colon) was greater than 100 µM, the TGI (KM20L2 colon) was greater than 100 µM and the TGI (LOX IMVI melanoma) was greater than 100 µM. The TGI (LXFL 529 NSCLC) was greater than 100 µM, the TGI (M14 melanoma) was greater than 100 µM and the TGI (M19-MEL melanoma) was greater than 100 µM. For the same compound, the TGI (MALME-3M melanoma) was greater than 100 µM, the TGI (MOLT-4 leukemia) was 43 µM and the TGI (NCI-H226 lung) was greater than 100 µM. For the same compound, the TGI (NCI-H23 lung) was greater than 100 µM, the TGI (NCI-H522 lung) was greater than 100 µM and the TGI (OVCAR-3 ovarian) was greater than 100 µM. The TGI (OVCAR-4 ovarian) was greater than 100 µM, the TGI (OVCAR-5 ovarian) was greater than 100 µM and the TGI (OVCAR-8 ovarian) was greater than 100 µM. It also gave a TGI (RPMI-8226 leukemia) greater than 100 µM, a TGI (RXF 393 renal) of 86.8 µM and a TGI (RXF-631 renal) greater than 100 µM. For the same compound, the TGI (SF-268 CNS) was greater than 100 µM, the TGI (SF-295 CNS) was greater than 100 µM and the TGI (SF-539 CNS) was greater than 100 µM. The TGI (SK-MEL-2 melanoma) was greater than 100 µM, the TGI (SK-MEL-28 melanoma) was greater than 100 µM and the TGI (SK-MEL-5 melanoma) was greater than 100 µM. It also gave a TGI (SK-OV-3 ovarian) of 95.6 µM, a TGI (SN12C renal) greater than 100 µM and a TGI (SNB-19 CNS) greater than 100 µM. The TGI (SNB-75 CNS) was 75.3 µM, the TGI (SNB-78 CNS) was greater than 100 µM and the TGI (SW-620 colon) was greater than 100 µM. It also gave a TGI (TK-10 renal) greater than 100 µM, a TGI (U251 CNS) greater than 100 µM and a TGI (UACC-257 melanoma) greater than 100 µM. The TGI (UACC-62 melanoma) was greater than 100 µM, the TGI (UO-31 renal) was 13.5 µM and the TGI (XF 498 CNS) was greater than 100 µM.

Work on `CCC(=O)N1C(=O)OCC1C(C)C` (stereo not drawn) yielded a TGI (786-0 renal) greater than 100 µM, a TGI (A498 renal) greater than 100 µM and a TGI (A549 NSCLC) greater than 100 µM. The TGI (ACHN renal) was greater than 100 µM, the TGI (CAKI-1 renal) was greater than 100 µM and the TGI (CCRF-CEM leukemia) was greater than 100 µM. For the same compound, the TGI (COLO 205 colon) was greater than 100 µM, the TGI (DLD-1 colon) was greater than 100 µM and the TGI (DMS 114 small cell lung) was greater than 100 µM. The TGI (DMS 273 small cell lung) was greater than 100 µM, the TGI (EKVX NSCLC) was greater than 100 µM and the TGI (HCC-2998 colon) was greater than 100 µM. For the same compound, the TGI (HCT-116 colon) was greater than 100 µM, the TGI (HCT-15 colon) was greater than 100 µM and the TGI (HL-60(TB) leukemia) was greater than 100 µM. It also gave a TGI (HOP-18 NSCLC) greater than 100 µM, a TGI (HOP-62 NSCLC) greater than 100 µM and a TGI (HOP-92 NSCLC) greater than 100 µM. It also gave a TGI (HT29 colon) greater than 100 µM, a TGI (IGROV1 ovarian) greater than 100 µM and a TGI (K-562 leukemia) greater than 100 µM. For the same compound, the TGI (KM12 colon) was greater than 100 µM, the TGI (KM20L2 colon) was greater than 100 µM and the TGI (LOX IMVI melanoma) was greater than 100 µM. The TGI (LXFL 529 NSCLC) was greater than 100 µM, the TGI (M14 melanoma) was greater than 100 µM and the TGI (M19-MEL melanoma) was greater than 100 µM. The TGI (MALME-3M melanoma) was greater than 100 µM, the TGI (MOLT-4 leukemia) was greater than 100 µM and the TGI (NCI-H23 lung) was greater than 100 µM. It also gave a TGI (NCI-H460 lung) greater than 100 µM, a TGI (OVCAR-3 ovarian) greater than 100 µM and a TGI (OVCAR-4 ovarian) greater than 100 µM. It also gave a TGI (OVCAR-5 ovarian) greater than 100 µM, a TGI (OVCAR-8 ovarian) greater than 100 µM and a TGI (RPMI-8226 leukemia) greater than 100 µM. For the same compound, the TGI (RXF 393 renal) was greater than 100 µM, the TGI (RXF-631 renal) was greater than 100 µM and the TGI (SF-268 CNS) was greater than 100 µM. The TGI (SF-295 CNS) was greater than 100 µM, the TGI (SF-539 CNS) was greater than 100 µM and the TGI (SK-MEL-2 melanoma) was greater than 100 µM. The TGI (SK-MEL-5 melanoma) was greater than 100 µM, the TGI (SK-OV-3 ovarian) was greater than 100 µM and the TGI (SN12C renal) was greater than 100 µM. The TGI (SNB-19 CNS) was greater than 100 µM, the TGI (SNB-75 CNS) was greater than 100 µM and the TGI (SNB-78 CNS) was greater than 100 µM. For the same compound, the TGI (SW-620 colon) was greater than 100 µM, the TGI (TK-10 renal) was greater than 100 µM and the TGI (U251 CNS) was greater than 100 µM. It also gave a TGI (UACC-257 melanoma) greater than 100 µM, a TGI (UACC-62 melanoma) greater than 100 µM and a TGI (UO-31 renal) greater than 100 µM. The TGI (XF 498 CNS) was greater than 100 µM.

Source: PubChem BioAssay (NCI)
